Experiments:
Venturia inaequalis = assay: Venturia Test (Apple)/Protective; assay type: in vivo; details: 240 h, application rate 10 g/ha, protective spray, evaluation 10 days after inoculation, 100% = no infection, read-out: % Efficacy
Protocol: Venturia Test (Apple)/Protective [table] To produce a suitable preparation of active compound, 1 part by weight of active compound is mixed with the stated amounts of solvent and the emulsifier, and the concentrate is diluted with water to the desired concentration. To test for protective activity, young plants are sprayed with the preparation of active compound at the stated application rate. After the spray coating has dried on, the plants are inoculated with an aqueous conidia suspension of the apple scab pathogen Venturia inaequalis and then remain in an incubation cabin at about 20° C. and 100% relative atmospheric humidity for 1 day. The plants are then placed in a greenhouse at about 21° C. and a relative atmospheric humidity of about 90%. Evaluation is carried out 10 days after the inoculation. 0% means an efficacy which corresponds to that of the control, whereas an efficacy of 100% means that no infection is observed.

[1] = logP determination by HPLC on reverse-phase column (C 18), EEC Directive 79/831 Annex V.A8; assay type: physicochemical; details: 43° C.; for chromatographic logP: reverse-phase HPLC column (C 18), pH 2.3, pH 2.3, 0.1% aqueous phosphoric acid/acetonitrile gradient
Protocol: The logP values given in the tables and Preparation Examples above are determined in accordance with EEC Directive 79/831 Annex V.A8 by HPLC (High Performance Liquid Chromatography) on a reverse-phase column (C 18). Temperature: 43° C. The determination is carried out in the acidic range at pH 2.3 using the mobile phases 0.1% aqueous phosphoric acid and acetonitrile; linear gradient from 10% acetonitrile to 90% acetonitrile. Calibration is carried out using unbranched alkan-2-ones (of 3 to 16 carbon atoms), with known logP values (determination of the logP values by the retention times using linear interpolation between two successive […]).

Botrytis cinerea = assay: Botrytis Test (Bean)/Protective; assay type: in vivo; details: 48 h, application rate 100 g/ha, protective spray, evaluation 2 days after inoculation, 100% = no infection, read-out: % Efficacy
Protocol: Botrytis Test (Bean)/Protective [table] To produce a suitable preparation of active compound, 1 part by weight of active compound is mixed with the stated amounts of solvent and emulsifier, and the concentrate is diluted with water to the desired concentration. To test for protective activity, young plants are sprayed with the preparation of active compound at the stated application rate. After the spray coating has dried on, 2 small pieces of agar colonised by Botrytis cinerea are placed onto each leaf. The inoculated plants are then placed in a dark chamber at about 20° C. and 100% relative atmospheric humidity. 2 days after the inoculation, the size of the infected areas on the leaves is evaluated. 0% means an efficacy which corresponds to that of the control, whereas an efficacy of 100% means that no infection is observed.

Sphaerotheca fuliginea = assay: Sphaerotheca Test (Cucumber)/Protective; assay type: in vivo; details: Podosphaera fuliginea, 168 h, application rate 10 g/ha, protective spray, evaluation 7 days after inoculation, 100% = no infection, read-out: % Efficacy
Protocol: Sphaerotheca Test (Cucumber)/Protective [table] To produce a suitable preparation of active compound, 1 part by weight of active compound is mixed with the stated amounts of solvent and emulsifier, and the concentrate is diluted with water to the desired concentration. To test for protective effectivity, the young plants are sprayed with the preparation of active compound at the stated application rate. After the spray coating has dried on, the plants are inoculated with an aqueous spore suspension of Sphaerotheca fuliginea. The plants are then placed in a greenhouse at about 23° C. and a relative atmospheric humidity of about 70%. Evaluation is carried out 7 days after the inoculation. 0% means an efficacy which corresponds to that of the control, whereas an efficacy of 100% means that no infection is observed.

Rhizoctonia solani = assay: In vitro Test for the ED50 Determination in Microorganisms; assay type: cell-based; details: 50% inhibition of fungal growth, tested at 0.1, 1, 10 and 100 ppm, 22° C., 3–5 days, photometric 620 nm
Protocol: (§1) In vitro Test for the ED50 Determination in Microorganisms A methanolic solution of the active compound to be tested, mixed with the emulsifier PS16, is pipetted into the wells of microtitre plates. After the solvent has evaporated, 200 μl of potato/dextrose medium are added to each well. Beforehand, a suitable concentration of spores or mycelium of the fungus to be tested was added to the medium. The resulting concentrations of the active compound are 0.1, 1, 10 and 100 ppm. The resulting concentration of the emulsifier is 300 ppm. The plates are then incubated on a shaker at a temperature of 22° C. for 3–5 days, until sufficient growth can be observed in the untreated control. Evaluation is carried out photometrically at a wavelength of 620 nm. The dose of active compound which causes a 50% inhibition of fungal growths compared to the untreated control (ED50), is calculated from the data measured at different concentrations.

Septoria tritici = assay: as above; assay type: cell-based; details: 50% inhibition of fungal growth, tested at 0.1, 1, 10 and 100 ppm, 22° C., 3–5 days, photometric 620 nm
Protocol: as §1

Cc1nc(C(F)(F)F)c(C(=O)Nc2ccccc2-c2cc(F)cc(F)c2)s1 [Example 5]
melting point: 133 to 134 °C | pest or weed control at 10 g/ha (Venturia inaequalis): 94% | chromatographic logP [1]: 3.35

Nc1ccccc1-c1ccc(F)c(Cl)c1 [Example (III-1), 3′-chloro-4′-fluoro-1,1′-biphenyl-2-amine]
chromatographic logP [1]: 3.01

Cc1nc(C(F)(F)F)c(C(=O)Nc2ccccc2Br)s1 [Example (IV-2), N-(2-bromophenyl)-2-methyl-4-(trifluoromethyl)-1,3-thiazol-5-carboxamide]
chromatographic logP [1]: 2.79

Cc1nc(C(F)(F)F)c(C(=O)Nc2ccccc2-c2ccc(F)cc2)s1 [Example 3.37, reference compound]
pest or weed control at 100 g/ha (Botrytis cinerea): 50% | pest or weed control at 10 g/ha (Sphaerotheca fuliginea): 20% | pest or weed control at 10 g/ha (Venturia inaequalis): 32% | ED50 (Rhizoctonia solani): > 100 ppm | ED50 (Septoria tritici): 84.24 ppm

Cc1nc(C(F)(F)F)c(C(=O)Nc2ccccc2-c2ccc(F)c(C(F)(F)F)c2)s1 [Example 9]
pest or weed control at 10 g/ha (Sphaerotheca fuliginea): 90% | chromatographic logP [1]: 3.76

Cc1nc(C(F)(F)F)c(C(=O)Nc2ccccc2-c2ccc(F)c(Cl)c2)s1 [Example 1, N-(3′-chloro-4′-fluoro-1,1′-biphenyl-2-yl)-2-methyl-4-(trifluoromethyl)-1,3-thiazol-5-carboxamide]
pest or weed control at 100 g/ha (Botrytis cinerea): 82% | pest or weed control at 10 g/ha (Sphaerotheca fuliginea): 83% | pest or weed control at 10 g/ha (Venturia inaequalis): 100% | logP ([1]; pH 2.3, 0.1% aqueous phosphoric acid/acetonitrile gradient, listed as 2): 3.60 | chromatographic logP [1]: 3.58

Cc1nc(C(F)(F)F)c(C(=O)Nc2ccccc2-c2ccc(C)c(C(F)(F)F)c2)s1 [Example 12]
pest or weed control at 10 g/ha (Sphaerotheca fuliginea): 100% | chromatographic logP [1]: 4.03 | ED50 (Rhizoctonia solani): < 0.1 ppm | ED50 (Septoria tritici): 3.16 ppm

Cc1nc(C(F)(F)F)c(C(=O)Nc2ccccc2-c2cc(Cl)cc(Cl)c2)s1 [Example 14]
pest or weed control at 10 g/ha (Venturia inaequalis): 100% | chromatographic logP [1]: 3.63 | ED50 (Rhizoctonia solani): < 0.1 ppm | ED50 (Septoria tritici): 0.32 ppm

Cc1nc(C(F)(F)F)c(C(=O)Nc2ccccc2-c2ccc(F)c(F)c2)s1 [Example 4]
pest or weed control at 10 g/ha (Sphaerotheca fuliginea): 90% | melting point: 120 to 122 °C | pest or weed control at 10 g/ha (Venturia inaequalis): 100% | chromatographic logP [1]: 3.31

Cc1nc(C(F)(F)F)c(C(=O)Nc2ccccc2-c2ccc(F)c(C)c2)s1 [Example 10]
pest or weed control at 100 g/ha (Botrytis cinerea): 95% | pest or weed control at 10 g/ha (Sphaerotheca fuliginea): 98% | pest or weed control at 10 g/ha (Venturia inaequalis): 100% | ED50 (Rhizoctonia solani): <0.1 <0.1 ppm | ED50 (Septoria tritici): <0.1 <0.1 ppm

Cc1nc(C(F)(F)F)c(C(=O)Nc2ccccc2-c2ccc(Cl)c(C(F)(F)F)c2)s1 [Example 11]
pest or weed control at 10 g/ha (Sphaerotheca fuliginea): 100% | pest or weed control at 10 g/ha (Venturia inaequalis): 100% | chromatographic logP [1]: 4.03 | ED50 (Rhizoctonia solani): < 0.1 ppm | ED50 (Septoria tritici): 1.42 ppm

Cc1nc(C(F)(F)F)c(C(=O)Nc2ccccc2-c2ccc(Cl)c(F)c2)s1 [Example 7]
pest or weed control at 100 g/ha (Botrytis cinerea): 92% | pest or weed control at 10 g/ha (Sphaerotheca fuliginea): 95% | melting point: 139 to 141 °C | pest or weed control at 10 g/ha (Venturia inaequalis): 100% | chromatographic logP [1]: 3.61

Cc1nc(C(F)(F)F)c(C(=O)Nc2ccccc2I)s1 [Example (IV-1), N-(2-iodophenyl)-2-methyl-4-(trifluoromethyl)-1,3-thiazol-5-carboxamide]
chromatographic logP [1]: 2.81

Cc1nc(C(F)(F)F)c(C(=O)Nc2ccccc2-c2ccc(Cl)cc2C)s1 [Example 16]
chromatographic logP [1]: 4.23 | ED50 (Rhizoctonia solani): 0.45 ppm | ED50 (Septoria tritici): 0.89 ppm

Cc1nc(C(F)(F)F)c(C(=O)Nc2ccccc2-c2ccc(F)cc2F)s1 [Example 6]
pest or weed control at 10 g/ha (Venturia inaequalis): 99% | chromatographic logP [1]: 3.21

Cc1nc(C(F)(F)F)c(C(=O)Nc2ccccc2-c2ccc(Cl)cc2F)s1 [Example 19]
pest or weed control at 100 g/ha (Botrytis cinerea): 99% | pest or weed control at 10 g/ha (Sphaerotheca fuliginea): 81% | pest or weed control at 10 g/ha (Venturia inaequalis): 100% | chromatographic logP [1]: 3.52

Cc1nc(C(F)(F)F)c(C(=O)Nc2ccccc2-c2ccc(OC(F)(F)F)c(C(F)(F)F)c2)s1 [Example 13]
pest or weed control at 10 g/ha (Sphaerotheca fuliginea): 85% | chromatographic logP [1]: 4.08

Cc1nc(C(F)(F)F)c(C(=O)Nc2ccccc2-c2ccc(C)c(Cl)c2)s1 [Example 18]
pest or weed control at 100 g/ha (Botrytis cinerea): 99% | pest or weed control at 10 g/ha (Venturia inaequalis): 100%

Cc1nc(C(F)(F)F)c(C(=O)Nc2ccccc2-c2ccc(Cl)cc2)s1 [reference compound]
pest or weed control at 100 g/ha (Botrytis cinerea): 76% | pest or weed control at 10 g/ha (Sphaerotheca fuliginea): 30% | pest or weed control at 10 g/ha (Venturia inaequalis): 76% | ED50 (Rhizoctonia solani): >100>100 ppm | ED50 (Septoria tritici): >100>100 ppm

Cc1nc(C(F)(F)F)c(C(=O)Nc2ccccc2-c2ccc(Cl)cc2Cl)s1 [Example 17]
pest or weed control at 100 g/ha (Botrytis cinerea): 87% | pest or weed control at 10 g/ha (Sphaerotheca fuliginea): 90% | chromatographic logP [1]: 3.86

Reference: patent publication US7098227B2, “Disubstituted thiazolyl carboxanilides and their use as microbicides” (Bayer Cropscience AG, priority 2002, dated 2006)
